Read-outs that look alike come from different tables or passages of the source.
Molecular target: His-Tagged hOGA (human O-GlcNAcase) (Homo sapiens (Human), UniProt O60502)
Assay: Human O-GlcNAcase enzyme inhibition assay (Example B01)
Format: biochemical
Details: for OGA inhibitor activity (in words): measured according to Example B01
[1] = OGA enzyme inhibition assay, activity range classes defined in μM, read-out: OGA IC50
[2] = OGA IC50 (M), OGA enzyme inhibition assay, activity range classes defined in μM

Chain of His-Tagged hOGA (human O-GlcNAcase) (O60502 whole entry): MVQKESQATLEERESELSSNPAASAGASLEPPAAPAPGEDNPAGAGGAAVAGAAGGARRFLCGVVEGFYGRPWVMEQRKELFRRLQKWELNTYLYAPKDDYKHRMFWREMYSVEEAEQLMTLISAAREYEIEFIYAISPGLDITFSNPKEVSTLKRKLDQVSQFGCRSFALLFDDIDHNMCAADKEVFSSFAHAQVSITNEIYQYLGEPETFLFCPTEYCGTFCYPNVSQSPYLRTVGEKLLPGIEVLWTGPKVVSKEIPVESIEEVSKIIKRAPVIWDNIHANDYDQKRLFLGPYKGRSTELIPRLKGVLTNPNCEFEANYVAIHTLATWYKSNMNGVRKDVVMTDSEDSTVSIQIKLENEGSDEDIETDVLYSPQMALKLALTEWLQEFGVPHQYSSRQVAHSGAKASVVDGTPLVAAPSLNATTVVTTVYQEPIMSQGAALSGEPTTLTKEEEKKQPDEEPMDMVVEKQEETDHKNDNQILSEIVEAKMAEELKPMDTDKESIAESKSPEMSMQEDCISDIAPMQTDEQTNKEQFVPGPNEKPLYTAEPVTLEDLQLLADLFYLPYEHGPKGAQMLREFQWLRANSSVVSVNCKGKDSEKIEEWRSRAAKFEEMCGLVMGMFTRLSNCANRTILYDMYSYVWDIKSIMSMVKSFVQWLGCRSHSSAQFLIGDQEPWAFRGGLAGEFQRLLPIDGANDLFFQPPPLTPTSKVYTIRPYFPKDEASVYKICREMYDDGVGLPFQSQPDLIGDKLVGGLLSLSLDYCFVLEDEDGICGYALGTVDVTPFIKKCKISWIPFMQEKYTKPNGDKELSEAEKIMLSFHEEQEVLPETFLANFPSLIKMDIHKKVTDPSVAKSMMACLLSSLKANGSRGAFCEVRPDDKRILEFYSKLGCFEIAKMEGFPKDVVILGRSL

| IC50 [1] | Structure (SMILES) | also measured |
| --- | --- | --- |
| 0.05 to 0.2 µM | CC(c1ccc2c(c1)OCO2)N1CCN(c2nc3c(s2)C(=O)NCC3)CC1 (racemic) [Example 148, 2-(4-(1-(benzo[d][1,3]dioxol-5-yl)ethyl)piperazin-1-yl)-6,7-dihydrothiazolo[5,4-c]pyridin-4(5H)-one] |  |
| 0.2 to 1 µM | CC(c1ccc2nccnc2c1)N1CCN(c2ccc(C(F)(F)F)cn2)CC1 (racemic) [Example 165, 6-(1-(4-(5-(trifluoromethyl)pyridin-2-yl)piperazin-1-yl)ethyl)quinoxaline] |  |
| < 0.05 µM | CC(=O)Nc1cnc(N2CCN(C(C)c3ccc4sc(C)nc4c3)CC2)nc1 (racemic) [Example 169, N-(2-(4-(1-(2-methylbenzo[d]thiazol-5-yl)ethyl)piperazin-1-yl)pyrimidin-5-yl)acetamide] |  |
| < 0.05 µM | CC(=O)Nc1nnc(N2CCN(C(C)c3ccc4sc(C)nc4c3)CC2)s1 (racemic) [Example 170, N-(5-(4-(1-(2-methylbenzo[d]thiazol-5-yl)ethyl)piperazin-1-yl)-1,3,4-thiadiazol-2-yl)acetamide] |  |
| 0.05 to 0.2 µM | CC(c1ccc2nccnc2c1)N1CCN(c2ncc(F)cn2)CC1 (racemic) [Example 172, 6-(1-(4-(5-fluoropyrimidin-2-yl)piperazin-1-yl)ethyl)quinoxaline] |  |
| 1 to 10 µM | CC(=O)Nc1cnc(N2CCN(C(C)c3ccc4ncsc4c3)CC2)nc1 (racemic) [Example 174, N-(2-(4-(1-(benzo[d]thiazol-6-yl)ethyl)piperazin-1-yl)pyrimidin-5-yl)acetamide] |  |
| 0.2 to 1 µM | CC(c1ccc2nccnc2c1)N1CCN(c2nc3c(s2)C(=O)NCC3)CC1 (racemic) [Example 178, 2-(4-(1-(quinoxalin-6-yl)ethyl)piperazin-1-yl)-6,7-dihydrothiazolo[5,4-c]pyridin-4(5H)-one] |  |
| 1 to 10 µM | CC(=O)Nc1nnc(N2CCN(C(C)c3ccc4ncsc4c3)CC2)s1 (racemic) [Example 179, N-(5-(4-(1-(benzo[d]thiazol-6-yl)ethyl)piperazin-1-yl)-1,3,4-thiadiazol-2-yl)acetamide] |  |
| 0.05 to 0.2 µM | COc1cnc(N2CCN(C(C)c3ccc4nccnc4c3)CC2)nc1 (racemic) [Example 196] |  |
| 0.05 to 0.2 µM | COc1nc(N2CCN(C(C)c3ccc4c(c3)OCCO4)CC2)ccc1Br (racemic) [Example 199] |  |
| 0.05 to 0.2 µM | COc1cccc(N2CCN(C(C)c3ccc4c(c3)OCCO4)CC2)n1 (racemic) [Example 200] |  |
| 1 to 10 µM | Cc1cnc2cc(C(C)N3CCN(c4ncccn4)CC3)ccc2c1 (racemic) [Example 201, 3-Methyl-7-(1-(4-(pyrimidin-2-yl)piperazin-1-yl)ethyl)quinoline] |  |
|  | CC(c1ccc2c(c1)OCCO2)N1CCN(c2ncccn2)CC1 (single isomer, unassigned) [Example 34] | OGA inhibitor activity (in words): very potent OGA inhibitors |
|  | CNC(=O)c1csc(N2CCN(C(C)c3ccc4c(c3)OCO4)CC2)n1 (single isomer, unassigned) [Example 56] | OGA inhibitor activity (in words): very potent OGA inhibitors |
|  | CC(c1ccc2c(c1)OCO2)N1CCN(c2ncc(C(=O)N(C)C)s2)CC1 (single isomer, unassigned) [Example 61, (R)-2-(4-(1-(benzo[d][1,3]dioxol-5-yl)ethyl)piperazin-1-yl)-N,N-dimethylthiazole-5-carboxamide or (S)-2-(4-(1-(benzo[d][1,3]dioxol-5-yl)ethyl)piperazin-1-yl)-N,N-dimethylthiazole-5-carboxamide] | IC50 [2]: 0.05 to 0.2 µM |
|  | CC(c1ccc2c(c1)OCCO2)N1CCN(c2ncc(C(=O)N3CCN(C)CC3)s2)CC1 (single isomer, unassigned) [Example 75] | OGA inhibitor activity (in words): very potent OGA inhibitors |
|  | CC(=O)Nc1cnc(N2CCN(C(C)c3ccc4c(c3)OCO4)CC2)nc1 (single isomer, unassigned) [Example 78] | IC50 [2]: < 0.05 µM |
|  | CC(c1ccc2cccnc2c1)N1CCN(c2ncccn2)CC1 (single isomer, unassigned) [Example 95, (S)-7-(1-(4-(pyrimidin-2-yl)piperazin-1-yl)ethyl)quinolone or (R)-7-(1-(4-(pyrimidin-2-yl)piperazin-1-yl)ethyl)quinoline] | IC50 [2]: 0.05 to 0.2 µM |
| < 0.05 µM | CC(=O)Nc1nnc(N2CCN(C(C)c3ccc4scnc4c3)CC2)s1 (single isomer, unassigned) [Example 133, (S)-N-(5-(4-(1-(benzo[d]thiazol-5-yl)ethyl)piperazin-1-yl)-1,3,4-thiadiazol-2-yl)acetamide or ((R)-N-(5-(4-(1-(benzo[d]thiazol-5-yl)ethyl)piperazin-1-yl)-1,3,4-thiadiazol-2-yl)acetamide] |  |
| < 0.05 µM | CC(O)c1cnc(N2CCN([C@@H](C)c3ccc4c(c3)OCO4)CC2)nc1 (single isomer, unassigned) [Example 197] |  |

| IC50 [1] | Structure (SMILES) | also measured |
| --- | --- | --- |
|  | CC(c1ccc2c(c1)OCO2)N1CCN(c2ccc([N+](=O)[O-])cn2)CC1 (centres unmarked) [Example 55, 1-(1-(benzo[d][1,3]dioxol-5-yl)ethyl)-4-(5-nitropyridin-2-yl)piperazine] | IC50: 0.05 to 0.2 µM |
| < 0.05 µM | C[C@@H](c1ccc2c(c1)OCO2)N1CCN(c2nnc(N)s2)CC1 [Example 132, (S)-5-(4-(1-(benzo[d][1,3]dioxol-5-yl)ethyl)piperazin-1-yl)-1,3,4-thiadiazol-2-amine] | OGA inhibitor activity (in words): very potent OGA inhibitors |
| < 0.05 µM | CNC(=O)c1cnc(N2CCN([C@@H](C)c3ccc4c(c3)OCO4)CC2)nc1 [Example 134, (S) 2-(4-(1-(benzo[d][1,3]dioxol-5-yl)ethyl)piperazin-1-yl)-N-methylpyrimidine-5-carboxamide] | OGA inhibitor activity (in words): very potent OGA inhibitors |
| 0.2 to 1 µM | C[C@@H](c1ccc2c(c1)OCO2)N1CCN(c2nc3ccccc3s2)CC1 [Example 136, (S)-2-(4-(1-(benzo[d][1,3]dioxol-5-yl)ethyl)piperazin-1-yl)benzo[d]thiazole] |  |
| < 0.05 µM | C[C@@H](c1ccc2c(c1)OCO2)N1CCN(c2ncc(C(=O)N(C)C)cn2)CC1 [Example 137, (S)-2-(4-(1-(benzo[d][1,3]dioxol-5-yl)ethyl)piperazin-1-yl)-N,N-dimethylpyrimidine-5-carboxamide] | OGA inhibitor activity (in words): very potent OGA inhibitors |
| 1 to 10 µM | C[C@@H](c1ccc2c(c1)OCO2)N1CCN(c2nc3ccccc3[nH]2)CC1 [Example 138, (S)-2-(4-(1-(benzo[d][1,3]dioxol-5-yl)ethyl)piperazin-1-yl)-1H-benzo[d]imidazole] |  |
| 0.05 to 0.2 µM | C[C@@H](c1ccc2c(c1)OCO2)N1CCN(c2nc3cnccc3s2)CC1 [Example 139, (S)-2-(4-(1-(benzo[d][1,3]dioxol-5-yl)ethyl)piperazin-1-yl)thiazolo[4,5-c]pyridine] |  |
| 0.05 to 0.2 µM | CCNc1nnc(N2CCN([C@@H](C)c3ccc4c(c3)OCO4)CC2)s1 [Example 141, (S)-5-(4-(1-(benzo[d][1,3]dioxol-5-yl)ethyl)piperazin-1-yl)-N-ethyl-1,3,4-thiadiazol-2-amine] |  |
| 0.05 to 0.2 µM | CCCNc1nnc(N2CCN([C@@H](C)c3ccc4c(c3)OCO4)CC2)s1 [Example 142, (S)-5-(4-(1-(benzo[d][1,3]dioxol-5-yl)ethyl)piperazin-1-yl)-N-propyl-1,3,4-thiadiazol-2-amine] |  |
| 0.05 to 0.2 µM | C[C@@H](c1ccc2c(c1)OCO2)N1CCN(c2ccc(C(F)(F)F)cn2)CC1 [Example 166, (S)-1-(1-(benzo[d][1,3]dioxol-5-yl)ethyl)-4-(5-(trifluoromethyl)pyridin-2-yl)piperazine] |  |
| < 0.05 µM | CC(=O)c1cnc(N2CCN([C@@H](C)c3ccc4c(c3)OCO4)CC2)nc1 [Example 167, (S)-1-(2-(4-(1-(benzo[d][1,3]dioxol-5-yl)ethyl)piperazin-1-yl)pyrimidin-5-yl)ethan-1-one] |  |
| < 0.05 µM | CC(O)c1cnc(N2CCN([C@@H](C)c3ccc4c(c3)OCO4)CC2)nc1 (stereo partly drawn) [Example 168, 1-(2-(4-((S)-1-(benzo[d][1,3]dioxol-5-yl)ethyl)piperazin-1-yl)pyrimidin-5-yl)ethan-1-ol] | OGA inhibitor activity (in words): very potent OGA inhibitors |
| < 0.05 µM | C[C@@H](c1ccc2c(c1)OCO2)N1CCN(c2nnc(NC(=O)CCO)s2)CC1 [Example 171] |  |
| < 0.05 µM | C[C@@H](c1ccc2c(c1)OCO2)N1CCN(c2ncc(F)cn2)CC1 [Example 173, (S)-2-(4-(1-(benzo[d][1,3]dioxol-5-yl)ethyl)piperazin-1-yl)-5-fluoropyrimidine] | OGA inhibitor activity (in words): very potent OGA inhibitors |
| < 0.05 µM | C[C@@H](c1ccc2c(c1)OCO2)N1CCN(c2ncc(Br)cn2)CC1 [Example 175, (S)-2-(4-(1-(benzo[d][1,3]dioxol-5-yl)ethyl)piperazin-1-yl)-5-bromopyrimidine] |  |
| < 0.05 µM | C[C@@H](c1ccc2c(c1)OCO2)N1CCN(c2ncc(C(C)(C)O)cn2)CC1 [Example 176, (S)-2-(2-(4-(1-(benzo[d][1,3]dioxol-5-yl)ethyl)piperazin-1-yl)pyrimidin-5-yl)propan-2-ol] | OGA inhibitor activity (in words): very potent OGA inhibitors |
| < 0.05 µM | C[C@@H](c1ccc2c(c1)OCO2)N1CCN(c2ncc(NC(=O)CCO)cn2)CC1 [Example 177, (S)-N-(2-(4-(1-(benzo[d][1,3]dioxol-5-yl)ethyl)piperazin-1-yl)pyrimidin-5-yl)-3-hydroxypropanamide] |  |
| < 0.05 µM | C[C@@H](c1ccc2c(c1)OCO2)N1CCN(c2ncc(C3(O)CCCCC3)cn2)CC1 [Example 180, (S)-1-(2-(4-(1-(benzo[d][1,3]dioxol-5-yl)ethyl)piperazin-1-yl)pyrimidin-5-yl)cyclohexan-1-ol] | OGA inhibitor activity (in words): very potent OGA inhibitors |
| < 0.05 µM | C[C@@H](c1ccc2c(c1)OCO2)N1CCN(c2ncc(C3(O)CCCC3)cn2)CC1 [Example 181, (S)-1-(2-(4-(1-(benzo[d][1,3]dioxol-5-yl)ethyl)piperazin-1-yl)pyrimidin-5-yl)cyclopentan-1-ol] | OGA inhibitor activity (in words): very potent OGA inhibitors |

Reference: US10336775B2 (Asceneuron SA, priority 2014, dated 2019)
